{
  "source": "ChEMBL document CHEMBL1123242",
  "about": "“Derivatives of 1-(1,3-benzodioxol-5-yl)-2-butanamine: representatives of a novel therapeutic class” (1986)",
  "type_in_all_cases": "functional",
  "key": {"[1]": {"tested_on": "Rattus norvegicus", "experiment": "Compound was tested for hallucinogenic activity in rats at the dose 0.0025 (mg/kg)"}, "[2]": {"tested_on": "Rattus norvegicus", "experiment": "Compound was tested for hallucinogenic activity in rats at the dose of 0.0025 (mg/kg); Number of rats selecting the LSDlever/ number of rats responding (0/8)"}, "[3]": {"tested_on": "Rattus norvegicus", "experiment": "Compound was tested for hallucinogenic activity in rats at the dose of 0.005(mg/kg); Number of rats selecting the LSDlever/ number of rats responding (4/8)"}, "[4]": {"tested_on": "Rattus norvegicus", "experiment": "Compound was tested for hallucinogenic activity in rats at the dose of 0.02(mg/kg); Number of rats selecting the LSDlever/ number of rats responding (5/8)"}, "[5]": {"tested_on": "Rattus norvegicus", "experiment": "Compound was tested for hallucinogenic activity in rats at the dose of 0.08(mg/kg); Number of rats selecting the LSDlever/ number of rats responding (8/8)"}, "[6]": {"tested_on": "Rattus norvegicus", "experiment": "Compound was tested for hallucinogenic activity in rats at the dose of 0.01(mg/kg); Number of rats selecting the LSDlever/ number of rats responding (4/8)"}, "[7]": {"tested_on": "Rattus norvegicus", "experiment": "Compound was tested for hallucinogenic activity in rats at the dose of 0.04(mg/kg); Number of rats selecting the LSDlever/ number of rats responding (6/8)"}, "[8]": {"tested_on": "Rattus norvegicus", "experiment": "Compound was tested for hallucinogenic activity in rats at 2.19 dose(mg/kg); 0/1, highest dose tested"}, "[9]": {"tested_on": "Rattus norvegicus", "experiment": "Compound was tested for hallucinogenic activity in rats at 1.38 dose(mg/kg); Number of rats selecting the LSD lever/ number of rats responding (2/8)"}, "[10]": {"tested_on": "Rattus norvegicus", "experiment": "Compound was tested for hallucinogenic activity in rats at 1.84 dose(mg/kg); Number of rats selecting the LSD lever/ number of rats responding (3/8)"}, "[11]": {"tested_on": "Rattus norvegicus", "experiment": "Compound was tested for hallucinogenic activity in rats at the dose 0.34 (mg/kg); Number of rats selecting the LSD lever/ number of rats responding (2/8)"}, "[12]": {"tested_on": "Rattus norvegicus", "experiment": "Compound was tested for hallucinogenic activity in rats at the dose 0.69(mg/kg); Number of rats selecting the LSD lever/ number of rats responding (0/8)"}, "[13]": {"tested_on": "Rattus norvegicus", "experiment": "Compound was tested for hallucinogenic activity in rats at 0.69 dose(mg/kg); Number of rats selecting the LSD lever/ number of rats responding (2/9)"}, "[14]": {"tested_on": "Rattus norvegicus", "experiment": "Compound was tested for hallucinogenic activity in rats at 2.07dose (mg/kg); Number of rats selecting the LSD lever/ number of rats responding (3/8)"}, "[15]": {"tested_on": "Rattus norvegicus", "experiment": "Compound was tested for hallucinogenic activity in rats at 2.41 dose (mg/kg); Number of rats selecting the LSD lever/ number of rats responding (3/8)"}, "[16]": {"tested_on": "Rattus norvegicus", "experiment": "Compound was tested for hallucinogenic activity in rats at 2.76 dose (mg/kg); Number of rats selecting the LSD lever/ number of rats responding (3/9)"}, "[17]": {"tested_on": "Rattus norvegicus", "experiment": "Compound was tested for hallucinogenic activity in rats at 3.44 dose (mg/kg); Number of rats selecting the LSD lever/ number of rats responding (4/8)"}, "[18]": {"tested_on": "Rattus norvegicus", "experiment": "Compound was tested for hallucinogenic activity in rats at 4.14 dose (mg/kg); 2/4, highest dose tested"}, "[19]": {"tested_on": "Rattus norvegicus", "experiment": "Compound was tested for hallucinogenic activity in rats at 1.72 dose(mg/kg); Number of rats selecting the LSD lever/ number of rats responding (4/8)"}, "[20]": {"tested_on": "Rattus norvegicus", "experiment": "Compound was tested for hallucinogenic activity in rats at dose 1.38(mg/kg); Number of rats selecting the LSD lever/ number of rats responding (2/8)"}, "[21]": {"tested_on": "Rattus norvegicus", "experiment": "Compound was tested for hallucinogenic activity in rats at the dose 0.17(mg/kg); Number of rats selecting the LSD lever/ number of rats responding (1/8)"}, "[22]": {"tested_on": "Rattus norvegicus", "experiment": "Compound was tested for hallucinogenic activity in rats at the dose 0.34(mg/kg); Number of rats selecting the LSD lever/ number of rats responding (3/8"}, "[23]": {"tested_on": "Rattus norvegicus", "experiment": "Compound was tested for hallucinogenic activity in rats at 0.69 dose(mg/kg); Number of rats selecting the LSD lever/ number of rats responding (4/8)"}, "[24]": {"tested_on": "Rattus norvegicus", "experiment": "Compound was tested for hallucinogenic activity in rats at 1.82 dose (mg/kg); 0/0, highest dose tested"}, "[25]": {"tested_on": "Rattus norvegicus", "experiment": "Compound was tested for hallucinogenic activity in rats at dose 1.38(mg/kg); Number of rats selecting the LSD lever/ number of rats responding (4/8)"}, "[26]": {"tested_on": "Rattus norvegicus", "experiment": "Compound was tested for hallucinogenic activity in rats at dose 1.72 (mg/kg); Number of rats selecting the LSD lever/ number of rats responding (4/8)"}, "[27]": {"tested_on": "Rattus norvegicus", "experiment": "Compound was tested for hallucinogenic activity in rats at the dose 0.17(mg/kg); Number of rats selecting the LSD lever/ number of rats responding […])"}, "[28]": {"tested_on": "Rattus norvegicus", "experiment": "Compound was tested for hallucinogenic activity in rats at the dose 0.34(mg/kg); Number of rats selecting the LSD lever/ number of rats responding (2/8)"}, "[29]": {"tested_on": "Rattus norvegicus", "experiment": "Compound was tested for hallucinogenic activity in rats at 0.69 dose(mg/kg); Number of rats selecting the LSD lever/ number of rats responding (0/8)"}, "[30]": {"tested_on": "Rattus norvegicus", "experiment": "Compound was tested for hallucinogenic activity in rats at 2.41 dose(mg/kg); Number of rats selecting the LSD lever/ number of rats responding (3/8)"}, "[31]": {"tested_on": "Rattus norvegicus", "experiment": "Compound was tested for hallucinogenic activity in rats at 2.76 dose(mg/kg); Number of rats selecting the LSD lever/ number of rats responding (4/8)"}, "[32]": {"tested_on": "Rattus norvegicus", "experiment": "Compound was tested for hallucinogenic activity in rats at 3.45 dose (mg/kg); Number of rats selecting the LSD lever/ number of rats responding (3/8)"}, "[33]": {"tested_on": "Rattus norvegicus", "experiment": "Compound was tested for hallucinogenic activity in rats at 4.14 dose (mg/kg); Number of rats selecting the LSD lever/ number of rats responding (2/8)"}, "[34]": {"tested_on": "Rattus norvegicus", "experiment": "Compound was tested for hallucinogenic activity in rats at 1.72 dose (mg/kg); Number of rats selecting the LSD lever/ number of rats responding (2/9)"}, "[35]": {"tested_on": "Rattus norvegicus", "experiment": "Compound was tested for hallucinogenic activity in rats at 2.07 dose(mg/kg); Number of rats selecting the LSD lever/ number of rats responding (3/10)"}, "[36]": {"tested_on": "Rattus norvegicus", "experiment": "Compound was tested for hallucinogenic activity in rats at dose 1.38 (mg/kg); 1/8"}, "[37]": {"tested_on": "Rattus norvegicus", "experiment": "Compound was tested for hallucinogenic activity in rats at the dose 0.17(mg/kg); Number of rats selecting the LSD lever/ number of rats responding (2/8)"}, "[38]": {"tested_on": "Rattus norvegicus", "experiment": "Compound was tested for hallucinogenic activity in rats at 5.52 dose(mg/kg); 1/2, highest dose tested"}, "[39]": {"tested_on": "Rattus norvegicus", "experiment": "Compound was tested for hallucinogenic activity in rats at 0.63 dose(mg/kg); Number of rats selecting the LSD lever/ number of rats responding (2/8)"}, "[40]": {"tested_on": "Rattus norvegicus", "experiment": "Compound was tested for hallucinogenic activity in rats at 1.62 dose(mg/kg); Number of rats selecting the LSD lever/ number of rats responding (2/6)"}, "[41]": {"tested_on": "Rattus norvegicus", "experiment": "Compound was tested for hallucinogenic activity in rats at dose 1.29(mg/kg); Number of rats selecting the LSD lever/ number of rats responding (3/8)"}, "[42]": {"tested_on": "Rattus norvegicus", "experiment": "Compound was tested for hallucinogenic activity in rats at the dose 0.16(mg/kg); Number of rats selecting the LSD lever/ number of rats responding (1/8)"}, "[43]": {"tested_on": "Rattus norvegicus", "experiment": "Compound was tested for hallucinogenic activity in rats at the dose 0.32(mg/kg); Number of rats selecting the LSD lever/ number of rats responding (2/8)"}, "[44]": {"tested_on": "Rattus norvegicus", "experiment": "Compound was tested for hallucinogenic activity in rats at 1.73 dose(mg/kg); 0/0, highest dose tested"}},
  "data": [
    {"compound": "CCN(CC)C(=O)[C@@H]1C=C2c3cccc4[nH]cc(c34)C[C@H]2N(C)C1", "note": "[LYSERGIDE]", "values": [
      {"measurement": "ED50", "setting": "[1]", "value": 0.025, "unit": "µmol/kg"},
      {"measurement": "Result", "setting": "[2]", "value": 0},
      {"measurement": "Result", "setting": "[3]", "value": 4},
      {"measurement": "Result", "setting": "[4]", "value": 5},
      {"measurement": "Result", "setting": "[5]", "value": 8},
      {"measurement": "Result", "setting": "[6]", "value": 4},
      {"measurement": "Result", "setting": "[7]", "value": 6}
    ]},
    {"compound": "CNC(C)Cc1ccc2c(c1)OCO2", "note": "(racemic) [MIDOMAFETAMINE]", "values": [
      {"measurement": "Result", "setting": "[8]", "value": 0},
      {"measurement": "Result", "setting": "[9]", "value": 2},
      {"measurement": "Result", "setting": "[10]", "value": 3},
      {"measurement": "Result", "setting": "[11]", "value": 2},
      {"measurement": "Result", "setting": "[12]", "value": 0}
    ]},
    {"compound": "CN[C@H](C)Cc1ccc2c(c1)OCO2", "values": [
      {"measurement": "Result", "setting": "[13]", "value": 2},
      {"measurement": "Result", "setting": "[14]", "value": 3},
      {"measurement": "Result", "setting": "[15]", "value": 3},
      {"measurement": "Result", "setting": "[16]", "value": 3},
      {"measurement": "Result", "setting": "[17]", "value": 4},
      {"measurement": "Result", "setting": "[18]", "value": 2},
      {"measurement": "Result", "setting": "[19]", "value": 4},
      {"measurement": "Result", "setting": "[20]", "value": 2},
      {"measurement": "Result", "setting": "[21]", "value": 1},
      {"measurement": "Result", "setting": "[22]", "value": 3}
    ]},
    {"compound": "CN[C@@H](C)Cc1ccc2c(c1)OCO2", "values": [
      {"measurement": "Result", "setting": "[23]", "value": 4},
      {"measurement": "Result", "setting": "[24]", "value": 0},
      {"measurement": "Result", "setting": "[25]", "value": 4},
      {"measurement": "Result", "setting": "[26]", "value": 4},
      {"measurement": "Result", "setting": "[27]", "value": 2},
      {"measurement": "Result", "setting": "[28]", "value": 2}
    ]},
    {"compound": "CC[C@@H](N)Cc1ccc2c(c1)OCO2", "values": [
      {"measurement": "Result", "setting": "[29]", "value": 0},
      {"measurement": "Result", "setting": "[30]", "value": 3},
      {"measurement": "Result", "setting": "[31]", "value": 4},
      {"measurement": "Result", "setting": "[32]", "value": 3},
      {"measurement": "Result", "setting": "[33]", "value": 2},
      {"measurement": "Result", "setting": "[34]", "value": 2},
      {"measurement": "Result", "setting": "[35]", "value": 3},
      {"measurement": "Result", "setting": "[36]", "value": 1},
      {"measurement": "Result", "setting": "[37]", "value": 2},
      {"measurement": "Result", "setting": "[28]", "value": 2},
      {"measurement": "Result", "setting": "[38]", "value": 1}
    ]},
    {"compound": "C[C@H](N)Cc1ccc2c(c1)OCO2", "values": [
      {"measurement": "Result", "setting": "[39]", "value": 2},
      {"measurement": "Result", "setting": "[40]", "value": 2},
      {"measurement": "Result", "setting": "[41]", "value": 3},
      {"measurement": "Result", "setting": "[42]", "value": 1},
      {"measurement": "Result", "setting": "[43]", "value": 2},
      {"measurement": "Result", "setting": "[44]", "value": 0}
    ]}
  ]
}
